# Tests used:
# [1] = Metabolism test using human liver microsome fractions; assay type: in vitro ADME; settings: human liver microsomes, test compound 10 μmol/L, NADPH and UDP-glucuronic acid, 37° C.
# Method in brief: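 Human or monkey liver microsomes (1 mg protein) with NADPH-regenerating system plus UDP-glucuronic acid/UGT mix, 37 °C; compound at 10 μmol/L final. Samples at 0–30 min quenched in acetonitrile, UV-HPLC; elimination rate (pmol/min/mg-P) from linear slope of residual amount over time.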
# [2] = tested on: NQO1; assay: NQO1 expression induction test in mouse kidney (single administration); assay type: in vivo; settings: Mus musculus, po, 6 h, BALB/c mouse kidney, 6 hours after administration, ratio to control group
# Method in brief: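 Female BALB/c mice received a single oral dose of compound in 0.5% methylcellulose, with untreated mice as controls. Six hours later, left-kidney NQO1 mRNA was measured by SYBR real-time RT-PCR normalised to GAPDH. Induction was expressed as the ratio of mean treated to mean control expression.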
# [3] = tested on: NQO1; assay: NQO1 enzyme induction test (in vitro) in Hepa1c1c7 cells; assay type: cell-based; settings: Mus musculus, Hepa-1c1c7, 48 h, concentration to elevate the NQO1 activity by 1.5 times, about 48 hours, read-out: EC150
# Method in brief: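 Mouse Hepa1c1c7 cells treated about 48 h with compound (0.1% DMSO final), then lysed. NQO1 activity read as MTT reduction at 540 nm with menadione substrate, 5 min at room temperature, and corrected for cell number by CellTiter-Glo. EC150 is the concentration raising NQO1 activity 1.5-fold.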
# [4] = molecular target: T1, GST fusion human Keap1 (amino acid residue: 325-624) protein (Homo sapiens, UniProt Q14145); assay: Keap1-Nrf2 binding inhibition test (fluorescence polarization); settings: compound concentration of 100 nM; read-out: inhibition rate
# T1 construct: GST fusion human Keap1 (amino acid residue: 325-624) protein; purchased Protein tech Ag0779
# Method in brief: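 Fluorescence polarization with FITC-labelled Nrf2 peptide (FITC-Ahx-LDEETGEFL-NH2) and GST-human Keap1 (325-624) in 20 mM Tris pH 7.5, 150 mM NaCl, 0.05% Tween 20, 5 mM DTT, BSA; 30 min at room temperature, ex 482/em 530 nm. Percent inhibition at 100 nM compound, Keap1-free wells = 100%.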
# T1 sequence (Q14145 325-624): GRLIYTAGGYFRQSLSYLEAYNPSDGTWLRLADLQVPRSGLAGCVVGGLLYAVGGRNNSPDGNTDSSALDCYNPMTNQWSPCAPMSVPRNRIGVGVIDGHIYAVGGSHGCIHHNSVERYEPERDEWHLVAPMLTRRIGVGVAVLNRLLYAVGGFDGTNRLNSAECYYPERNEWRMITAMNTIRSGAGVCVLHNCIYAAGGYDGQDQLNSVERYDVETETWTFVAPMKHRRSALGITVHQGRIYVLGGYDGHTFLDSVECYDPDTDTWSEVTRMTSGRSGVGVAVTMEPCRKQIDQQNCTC
inhibition at 0.1 µM [4] [%],Structure (SMILES),Human metabolic rate [1],fold induction at 30 mg/kg [2],EC (1.5-fold NQO1 activity) [3] [µM],fold induction at 20 mg/kg [2]
≥ 50,"CC[C@@H]1CN(Cc2cc(C(c3ccc4c(nnn4C)c3C)C(C)(C)C(=O)O)ccc2C)Cc2cc3c(F)cccc3cc2O1 (stereo partly drawn) [Example 54-(b), 3-(1,4-dimethyl-1H-benzo[d][1,2,3]triazol-5-yl)-3-(3-(((R)-2-ethyl-7-fluoro-2,3-dihydronaphtho[2,3-f][1,4]oxazepin-4(5H)-yl)methyl)-4-methylphenyl)-2,2-dimethylpropanoic Acid]",B (100≤metabolic rate<150 pmol/min/mg protein),3 to 6,0.005 to 0.05,
≥ 50,"CC[C@@H]1CN(Cc2cc(C(c3ccc4c(nnn4C)c3C)C(C)(C)C(=O)O)ccc2C)Cc2cc3c(cnn3C)cc2O1 (stereo partly drawn) [Example 65-(b), 3-(1,4-dimethyl-1H-benzo[d][1,2,3]triazol-5-yl)-3-(3-(((R)-6-ethyl-1-methyl-1,6,7,9-tetrahydro-8H-[1,4]oxazepino[7,6-f]indazol-8-yl)methyl)-4-methylphenyl)-2,2-dimethylpropanoic Acid]",D (200≤metabolic rate<250 pmol/min/me protein),,0.0005 to 0.005,3 to 6
≥ 50,"Cc1ccc(C(c2ccc3c(nnn3C)c2C)C(C)(C)C(=O)O)cc1CN1Cc2cc3ncccc3cc2O[C@H](C)C1 (stereo partly drawn) [Example 75-(b), 3-(1,4-dimethyl-1H-benzo[d][1,2,3]triazol-5-yl)-2,2-dimethyl-3-(4-methyl-3-(((R)-2-methyl-2,3-dihydro-[1,4]oxazepino[7,6-g]quinolin-4 (5H)-yl)methyl)phenyl) propanoic Acid]",E (metabolic rate≥250 pmol/min/mg protein),,0.0005 to 0.005,> 6
≥ 50,"Cc1ccc(C(c2ccc3c(nnn3C)c2C)C(C)(C)C(=O)O)cc1CN1Cc2cc3ncccc3cc2OC2(CC2)C1 (stereo not drawn) [Example 76-(b), 3-(3-((3′H-spiro[cyclopropane-1,2′-[1,4]oxazepino[7,6-g]quinoline]-4′ (5′H)-yl)methyl)-4-methylphenyl)-3-(1,4-dimethyl-1H-benzo[d][1,2,3]triazol-5-yl)-2,2-dimethylpropanoic Acid]",B (100≤metabolic rate<150 pmol/min/mg protein),,0.0005 to 0.005,> 6
≥ 50,"CC[C@@H]1CN(Cc2cc(C(c3ccc4c(nnn4C)c3C)C(C)(C)C(=O)O)ccc2C)Cc2cc3c(cc2O1)OC(F)(F)O3 (stereo partly drawn) [Example 1-(b), 3-(1,4-dimethyl-1H-benzo[d][1,2,3]triazol-5-yl)-3-(3-(((R)-6-ethyl-2,2-difluoro-6,7-dihydro-[1,3]dioxolo[4′,5′:4,5]benzo[1,2-f][1,4]oxazepin-8(9H)-yl)methyl)-4-methylphenyl)-2,2-dimethylpropanoic Acid]",C (150≤metabolic rate<200 pmol/min/mg protein),3 to 6,0.0005 to 0.005,
≥ 50,"CC[C@@H]1CN(Cc2cc(C(c3ccc4c(nnn4C)c3C)C(C)(C)C(=O)O)ccc2C)Cc2cc3c(cc2O1)OC(C)(C)O3 (stereo partly drawn) [Example 61-(b), 3-(1,4-dimethyl-1H-benzo[d][1,2,3)triazol-5-yl)-3-(3-(((R)-6-ethyl-2,2-dimethyl-6,7-dihydro-(1,3]dioxolo[4′,5′:4,5]benzo[1,2-f][1,4]oxazepin-8(9H)-yl)methyl)-4-methylphenyl)-2,2-dimethylpropanoic Acid]",A (metabolic rate<100 pmol/min/mg protein),3 to 6,0.005 to 0.05,
≥ 50,"CC[C@@H]1CN(Cc2cc(C(c3ccc4c(nnn4CC)c3C)C(C)(C)C(=O)O)ccc2C)Cc2cc3ncccc3cc2O1 (stereo partly drawn) [Example 59-(b), 3-(3-(((R)-2-ethyl-2,3-dihydro-[1,4]oxazepino[7,6-g]quinolin-4(5H)-yl)methyl)-4-methylphenyl)-3-(1-ethyl-4-methyl-1H-benzo[d][1,2,3]triazol-5-yl)-2,2-dimethylpropanoic Acid]",D (200≤metabolic rate<250 pmol/min/me protein),> 6,0.0005 to 0.005,
≥ 50,"CC[C@@H]1CN(Cc2cc(C(c3ccc4c(nnn4C)c3C)C(C)(C)C(=O)O)ccc2C)Cc2ncc3ccccc3c2O1 (stereo partly drawn) [Example 25-(b), 3-(1,4-dimethyl-1H-benzo[d][1,2,3]triazol-5-yl)-3-(3-(((R)-2-ethyl-2,3-dihydro-[1,4]oxazepino[6,7-c]isoquinolin-4(5H)-yl)methyl)-4-methylphenyl)-2,2-dimethylpropanoic Acid]",D (200≤metabolic rate<250 pmol/min/me protein),> 6,0.0005 to 0.005,
≥ 50,"CC[C@@H]1CN(Cc2cc(C(c3ccc4c(nnn4C)c3C)C(C)(C)C(=O)O)ccc2C)Cc2cc3cnccc3cc2O1 (stereo partly drawn) [Example 53, 3-(1,4-dimethyl-1H-benzo[d][1,2,3]triazol-5-yl)-3-(3-(((R)-2-ethyl-2,3-dihydro-[1,4]oxazepino[7,6-g]isoquinolin-4 (5H)-yl)methyl)-4-methylphenyl)-2,2-dimethylpropanoic Acid]",C (150≤metabolic rate<200 pmol/min/mg protein),> 6,0.0005 to 0.005,
≥ 50,"CC[C@@H]1CN(Cc2cc(C(c3ccc4c(nnn4C)c3C)C(C)(C)C(=O)O)ccc2C)Cc2cnc3ccccc3c2O1 (stereo partly drawn) [Example 26-(b), 3-(1,4-dimethyl-1H-benzo[d][1,2,3]triazol-5-yl)-3-(3-(((R)-2-ethyl-2,3-dihydro-[1,4]oxazepino[6,7-c]quinolin-4(5H)-yl)methyl)-4-methylphenyl)-2,2-dimethylpropanoic Acid]",E (metabolic rate≥250 pmol/min/mg protein),> 6,0.0005 to 0.005,
≥ 50,"CC[C@@H]1CN(Cc2cc(C(c3ccc4c(nnn4C)c3C)C(C)(C)C(=O)O)ccc2C)Cc2cc(F)c3ccccc3c2O1 (stereo partly drawn) [Example 49-(b), 3-(1,4-dimethyl-1H-benzo[d](1,2, 3)triazol-5-yl)-3-(3-(((R)-2-ethyl-7-fluoro-2,3-dihydronaphtho[2,1-f][1,4]oxazepin-4 (5H)-yl)methyl)-4-methylphenyl)-2,2-dimethylpropanoic Acid]",B (100≤metabolic rate<150 pmol/min/mg protein),> 6,0.0005 to 0.005,
≥ 50,"CC[C@@H]1CN(Cc2cc(C(c3ccc4c(nnn4C)c3C)C(C)(C)C(=O)O)ccc2C)Cc2c(ccc3cn(C)nc23)O1 (stereo partly drawn) [Example 22-(b), 3-(1,4-dimethyl-1H-benzo[d][1,2, 3)triazol-5-yl)-3-(3-(((R)-7-ethyl-2-methyl-2,7,8,10-tetrahydro-9H-(1,4]oxazepino[7,6-g]indazol-9-yl)methyl)-4-methylphenyl)-2,2-dimethylpropanoic Acid]",B (100≤metabolic rate<150 pmol/min/mg protein),> 6,0.0005 to 0.005,
≥ 50,"Cc1ccc(C(c2ccc3c(nnn3C)c2C)C(C)(C)C(=O)O)cc1CN1Cc2cc3ncccc3cc2OC(C)(C)C1 (stereo not drawn) [Example 60-(b), 3-(1,4-dimethyl-1H-benzo[d][1,2,3]triazol-5-yl)-3-(3-((2,2-dimethyl-2,3-dihydro-[1,4]oxazepino[7,6-g]quinolin-4 (5H)-yl)methyl)-4-methylphenyl)-2,2-dimethylpropanoic Acid]",D (200≤metabolic rate<250 pmol/min/me protein),≤ 3,0.0005 to 0.005,
≥ 50,"CC[C@@H]1CN(Cc2cc(C(c3ccc4c(nnn4C)c3C)C(C)(C)C(=O)O)ccc2Cl)Cc2cc3ncccc3cc2O1 (stereo partly drawn) [Example 80-(b), 3-(4-chloro-3-(((R)-2-ethyl-2,3-dihydro-[1,4]oxazepino[7,6-g]quinolin-4 (5H)-yl)methyl)phenyl)-3-(1,4-dimethyl-1H-benzo[d][1,2, 3]triazol-5-yl)-2,2-dimethylpropanoic Acid]",D (200≤metabolic rate<250 pmol/min/me protein),,0.005 to 0.05,> 6
≥ 50,"CC[C@@H]1CN(Cc2cc(C(c3ccc4c(nnn4C)c3C)C(C)(C)C(=O)O)ccc2C)Cc2cc3ccncc3cc2O1 (stereo partly drawn) [Example 52-(b), 3-(1,4-dimethyl-1H-benzo[d][1,2, 3]triazol-5-yl)-3-(3-(((R)-2-ethyl-2,3-dihydro-[1,4]oxazepino[6,7-g]isoquinolin-4 (5H)-yl)methyl)-4-methylphenyl)-2,2-dimethylpropanoic Acid]",C (150≤metabolic rate<200 pmol/min/mg protein),> 6,0.0005 to 0.005,

# — patent publication US12559504B2, “Benzotriazole derivative” (UBE CORPORATION, priority 2019, dated 2026)
